From patent publication EP1481986A1, “Antibiotic 97518, pharmaceutically acceptable salts and compositions, and use thereof” (priority 2003, dated 2004)
Values after ≈ are worked out from the molar mass of the structure shown.

How the values were obtained:
[1] = tested on: Staphylococcus aureus strain ATCC6538P (L100); test: Macromolecular synthesis (incorporation of labelled precursors of DNA, RNA, protein and cell wall); assay type: cell-based; details: 20 min at 37°C
Procedure: Staphylococcus aureus strain ATCC6538P (L100) was grown overnight at 37 °C in a rotary bath in Iso-Sensitest Broth (Oxoid Ltd., Basingstoke, Hampshire, England). The culture was diluted up to an OD540 = 0.03 in a 1:1 (v/v) mixture of Iso-Sensitest broth : Davis Mingioli Broth (Difco Labs, Detroit, USA) added with 1g/l of KH2PO4, and was incubated at 37°C. To determine the antibiotic dose/response effects on RNA, DNA, protein and cell wall biosyntheses, the culture was divided in four parts when the optical density reached 0.4. Individual precursors of DNA ([…] ^3H-thymidine + 0.1g/l unlabelled adenosine), RNA (5 mCi/l ^3H-uracil), protein (10 mCi/l ^3H-leucine), and cell wall (1 mCi/l ^3H-N-acetylglucosamine + 3.5 mg/l unlabelled N-acetylglucosamine) biosyntheses were then added, resptectively, to each one of the four aliquots and, immediately after the addition, 100 µl of the resulting culture was dispensed in wells of microtiter plate (96 wells format), containing 10 µl of solutions of antibiotic 97518. After 20 min of incubation at 37°C, 0.1 ml ice-cold 20% (w/v) trichloroacetic acid was added to stop the incorporation. After 30 minutes at 4°, the samples were filtered on Filtermat A (Wallac) using an 96 well Wallac Cell Harvester. The Radioactivity not incorporated was washed away sequentially with water and ethanol. The radioactivity of the biopolymers was counted on the filters, using a Beta Plate System (Wallac).

[2] = tested on: 997 Neisseria gonorrhoeae clin.is.; test: Microbroth dilution MIC (NCCLS M7-A5); assay type: cell-based; details: 10^4 CFU/ml, 35°C, 18-24 hours
Procedure: (§1) Antimicrobial activity of antibiotic 97518 was determined by using microbroth dilution method with standard U-bottom 96-well plates according to The National Committee for Clinical Laboratory Standards (Methods for Dilution Antimicrobial Susceptibility Tests for Bacteria that Grow Aerobically - Fifth Edition; Approved Standard. NCCLS document M7-A5 Vol.20 No. 2). The strains used were clinical isolates or strains from American Type Culture Collection (ATCC). Powder of antibiotic 97518 was dissolved in DMSO; this solution was further diluted with distilled water. The media used were cation-adjusted Mueller Hinton broth (CAMHB) for Staphylococcus aureus, Moraxella catarrhalis, Enterococci; Todd Hewitt broth (THB) for Streptococcus pyogenes, Streptococcus pneumoniae. Inocula were 10^4 CFU/ml. All strains were incubated at 35°C in air. Incubation time was 18-24 hours. […]

[3] = tested on: Streptococcus pyogenes C 203; test: Mouse septicemia protection test (ip infection, survival to day 7); assay type: in vivo, Female ICR mice; details: mice infected ip with Streptococcus pyogenes C 203, Spearman-Kärber method
Procedure: Female ICR mice (Harlan, Italy) weighing 14-16 g were infected intraperitoneally (ip) with 6.5 x 10^2 cells of Streptococcus pyogenes C 203 in 0.5 mL of saline supplemented with 1% peptone. Antibiotic 97518 was administered intravenously (iv) or subcutaneously (sc) within 10-15 min after infection. The 50% effective doses (ED50) were calculated by the Spearman-Kärber method (D.J. Finney. The Spearman-Kärber method. In: Statistical Methods in Biological Assay. (1952) pp. 524-530, Charles Griffin &Co., Ltd., London) from the percentage of animals surviving to day 7 at each dose.

[4] = tested on: 1652 Enterococcus faecium cl.isol. Van A; test: Microbroth dilution MIC (NCCLS M7-A5); assay type: cell-based; set-up: unit not given here; details: CAMHB, 10^4 CFU/ml, 35°C, 18-24 hours
Procedure: as §1

[5] = in vivo

Compound | the four macromolecular syntheses (DNA, RNA, protein, cell wall) ([1]; control experiments) | MIC [2] | ED50 ([3]; administered intravenously (iv) within 10-15 min after infection) | ED50 ([3]; administered subcutaneously (sc) within 10-15 min after infection) | other macromolecular syntheses (DNA, RNA, protein) ([1]; at 2.5 µg/ml (same concentrations)) | cell wall synthesis (3H-N-acetylglucosamine incorporation) ([1]; at 2.5 µg/ml) | MIC [4] | not toxic up to (dose) [5]
nisin [reference compound] | inhibited all the four macromolecular syntheses at the same concentration |  |  |  |  |  |  | 
C=C1NC(=O)[C@H](C(C)C)NC(=O)[C@H](NC(=O)/C(=C/C)NC(=O)[C@@H](N)[C@@H](C)CC)CSC[C@@H](C(=O)N[C@H]2C(=O)N3CCC[C@H]3C(=O)NCC(=O)N[C@H](C(=O)N[C@H](C(=O)N[C@@H]3CSC[C@@H]4NC(=O)CNC(=O)[C@@H](CSC[C@@H]5NC(=O)[C@H](Cc6c[nH]cn6)NC(=O)[C@@H](CSC[C@@H](C(=O)O)NC5=O)NC4=O)NC(=O)CNC(=O)CNC(=O)CNC(=O)[C@H](CCC(=O)O)NC3=O)[C@@H](C)O)CS[C@H]2C)NC(=O)[C@H](Cc2c[nH]c3ccccc23)NC1=O [Antibiotic 97518] |  | 64 mg/mL (≈ 29.2 mM) | 3.75 mg/kg | 3.75 mg/kg | only partially inhibited | blocked cell wall synthesis completely | 64 | up to 100 mg/Kg
